Results as given in ChEMBL document CHEMBL5096193, “Potential pharmacological strategies targeting the Niemann-Pick C1 receptor and Ebola virus glycoprotein interaction” (Eur J Med Chem, 2021).

Tests used:
Ebolavirus [1] = test: Antiviral activity against HIV based pseudotyped virus expressing Ebola-GP infected in human HeLa cells assessed as reduction in viral infection preincubated for 1 hrs followed by viral infection and measured after 48hrs by Steady-Glo luciferase assay; format: functional, organism-based; conditions: Orthoebolavirus
Ebolavirus [2] = test: Antiviral activity against Ebola virus; format: functional, organism-based; conditions: Orthoebolavirus
Ebolavirus [3] = test: Antiviral activity against Zaire Ebola virus infected in African green monkey assessed as reduction in viral infection incubated for 48hrs by GFP fluorescence based method; format: functional, organism-based, Vero E6; conditions: Orthoebolavirus, Vero C1008, 48 h
Ebolavirus [4] = test: Antiviral activity against HIV based pseudotyped virus expressing Ebola-GP infected in human 293T cells assessed as inhibition of viral infection preincubated for 1 hr followed by viral infection 1 hr and measured after 72 hrs; format: functional; conditions: Orthoebolavirus, 293TA; time 74 hrs
Ebolavirus [5] = test: Antiviral activity against HIV based pseudotyped virus expressing Ebola-GP infected in human A549 cells assessed as inhibition of viral infection preincubated upto 12 hrs followed by viral infection and measured after 48 hrs; format: functional; conditions: Orthoebolavirus, time 60 hrs
Zaire ebolavirus = test: Antiviral activity against Zaire ebolavirus infected in african green monkey assessed as reduction in viral infection preincubated for 1 hr followed by viral infection 1 hr and measured after 8 days by crystal violet staining based plaque assay; format: functional, organism-based, Vero E6; conditions: Vero C1008
Ebolavirus [6] = test: Antiviral activity against Ebola virus infected in African green monkey Vero E6 cells assessed as reduction in viral titer infected for 1 hr followed by compound addition and measured after 5 days by immunofocus assay; format: functional, organism-based; conditions: Orthoebolavirus, Vero C1008
[7] = Inhibition of NPC1/VSV pseudotyped Ebola Viral Glycoprotein protein-protein interaction; set-up: species or system Ebolavirus
Ebolavirus [8] = test: Antiviral activity against Ebola virus makona; format: functional, organism-based; conditions: Orthoebolavirus
Ebolavirus [9] = test: Antiviral activity against VSV based pseudotyped virus expressing Ebola-GP infected in […] cells assessed as reduction in viral infection incubated for 24 hrs by linear regression analysis; format: functional, organism-based; conditions: Orthoebolavirus
Ebolavirus [10] = test: Antiviral activity against Ebola virus infected in […] cells assessed as reduction in viral infection incubated for 10 days by crystal violet staining based method; format: functional, organism-based; conditions: Orthoebolavirus, 240 h

O=C(CN1CCCC1)NNc1ccccc1Sc1cc(Cl)ccc1[N+](=O)[O-]
IC50 (Ebolavirus [1]): 2.04 µM

CN(C)CCOc1ccc(/C(=C(/CCCl)c2ccccc2)c2ccccc2)cc1 [TOREMIFENE]
IC50 (Ebolavirus [2]): 0.162 µM

FC(C1=Nc2ccccc2N=C(c2ccccc2)C1)C(F)(F)F (configuration not stated)
IC50 (Ebolavirus [3]): 10 µM | IC90 (Ebolavirus [4]): 12.1 µM

COc1ccc(S(=O)(=O)N(CC(=O)Nc2ccccc2-c2ccccc2)c2ccc(C)cc2)cc1
IC90 (Ebolavirus [5]): 8.6 µM | IC50 (Zaire ebolavirus): 8.07 µM

NC(=O)c1nc(F)cnc1O [FAVIPIRAVIR]
IC50 (Ebolavirus [6]): 67 µM

CCN(CC)CC(=O)NNc1ccccc1Sc1cc(Cl)ccc1[N+](=O)[O-]
IC50 (Ebolavirus [1]): 4.69 µM

O=C(CC12CC3CC(CC(C3)C1)C2)NCC(=O)N1CCN(Cc2ccccc2)CC1
IC50 [7]: 1.6 µM

COC(=O)c1ccc(COc2ccccc2CN2CCN(C(=O)CNC(=O)CC34CC5CC(CC(C5)C3)C4)CC2)cc1
EC50 (Ebolavirus [8]): 0.16 µM | IC50 [7]: 0.13 µM

O=C(CNCCC1CCN(Cc2ccccc2)CC1)Nn1c2ccccc2c2ccccc21
IC50 (Ebolavirus [1]): 0.37 µM

CCOc1ccc(NC(=O)CSc2nnc(COc3cccc(N(C)C)c3)n2-c2ccccc2)cc1
IC90 (Ebolavirus [5]): 25.7 µM | IC50 (Zaire ebolavirus): 10 µM

C[C@]12CC3CC(C(=O)N[C@H]4CC[C@H](N)CC4)(C1)C[C@@](c1ccccc1)(C3)C2
EC50 (Ebolavirus [9]): 0.24 µM | EC50 (Ebolavirus [10]): 0.24 µM

CCC(CC)COC(=O)[C@H](C)N[P@](=O)(OC[C@H]1O[C@@](C#N)(c2ccc3c(N)ncnn23)[C@H](O)[C@@H]1O)Oc1ccccc1 [REMDESIVIR]
IC50 (Ebolavirus [8]): 86 µM
